Measurements: patent publication US20240199590A1, “SOLID FORMS OF A SGC ACTIVATOR” (Boehringer Ingelheim International GmbH, priority 2022, published 2024)

Key:
Format in all cases: physicochemical
[1] = Solid form stability (tendency to convert to a different solid form, high RH)
Experimental: (§1) Water sorption isotherms are determined using a dynamic vapor sorption system (Advantage 1, DVS, London, UKDVS Intrinsic Plus, Surface Measurement Systems, Allentown, PA).
(§2) Approximately 5-10 mg of solid is weighed into a tared aluminum pan. The samples are subjected to 0 to 90% RH stepwise with a step size of […] at 25° C. Equilibration criteria are dm/dt of 0.002% over 5 minutes or 360 minutes at a specified % RH. Each sample is equilibrated at each RH step for at least 60 min, and equilibrium is assumed if weight increase is less than 0.1% within one minute, and the maximum duration on each RH is 6 hours. Therefore, each sample is held at a given RH for 1 to 6 hours depending on how fast the equilibrium is reached
The amorphous of Compound 1 (10 mg) is added to a pan for Dynamic Vapor Sorption analysis. The solid is exposed stepwise from 40 to 95 to 0 to 95 to 0% RH at 25° C. Form III is isolated after completing the stepwise exposures.

[2] = Storage stability of samples of Form I at controlled temperature and relative humidity
Experimental: Samples of Form I were maintained for at least 9 months at 25°, and 60% and at least 6 months at 40° and 75% relative humidity.

[3] = Hygroscopicity (water sorption, dynamic vapor sorption); conditions: compared to the anhydrate (Form I) and monohydrate forms (Form III, Form V)
Experimental: as §1, §2

[4] = at least 6 months at 40° and 75% relative humidity
[5] = at least 9 months at 25°, and 60%

stability as compared to the amorphous form of Compound 1 ([1]; compared to the amorphous form) | change in particle sized distribution on storage [2, 4] | changes in Raman spectra on storage [2, 4] | increase in impurity levels on storage [2, 4] | increase in water content on storage [2, 4] | change in particle sized distribution on storage [2, 5] | changes in Raman spectra on storage [2, 5] | increase in impurity levels on storage [2, 5] | increase in water content on storage [2, 5] | stability of the solid form under high RH ([1]; high RH, converting to Form III) | hygroscopicity [3] | Compound
improved stability | no change in particle sized distribution | no | no increase in impurity levels | no increase in water content | no change in particle sized distribution | no | no increase in impurity levels | no increase in water content | – | – | CCOc1c(C(=O)O)cnn1-c1cccc(-c2cccc(C)c2OCc2ccc3c(c2C)CCN(C2CCOCC2)C3)n1 [Form I]
– | – | – | – | – | – | – | – | – | not stable | higher hygroscopicity | CCOc1c(C(=O)O)cnn1-c1cccc(-c2cccc(C)c2OCc2ccc3c(c2C)CCN(C2CCOCC2)C3)n1 [amorphous form of Compound 1]
